# In patent US20260055088A1, “HETEROCYCLIC COMPOUND, METHOD FOR PREPARING SAME, AND PHARMACEUTICAL USE THEREOF” (Jiangsu Hengrui Pharmaceuticals Co., Ltd., priority 2022, published 2026):
# Columns and labels:
# [1] = Pharmacokinetic evaluation in SD rats (i.g.); format: in vivo; details: male, Sprague-Dawley (SD), rat, plasma, po, 2.0 mg/kg; for AUC(0-t): read-out: Area under curve AUC0-t; for CL/F: read-out: Clearance rate CL/F; for half-life: read-out: Half-life T½ (converted); for Cmax: read-out: Plasma concentration Cmax
# Experimental: SD rats were used as test animals. After intragastric (i.g.) administration of the example compounds to SD rats, the plasma concentrations of the compounds at different time points were determined by the LC/MS/MS method. The pharmacokinetic behaviors of the compounds of the present disclosure in SD rats were studied, and their pharmacokinetic profiles were evaluated.
# Compounds 16 and 32: Four male SD rats, provided by Vital River Laboratory Animal Technology Co., Ltd. The animals were fasted overnight and then intragastrically dosed.
# Compound 38: Two male SD rats, provided by Zhejiang Vital River Laboratory Animal Technology Co., Ltd. The animals were fasted overnight and then intragastrically dosed.
# Compounds 16 and 32: Certain amounts of the test compounds were weighed out, and 5% DMSO+5% tween 80+90% normal saline was added to prepare 0.2 mg/mL colorless clear solutions.
# Compound 38: A certain amount of the test compound was weighed out, and 25% PEG400+75% (10% TPGS+1% HPMC K100LV) was added to prepare a 5 mg/mL colorless clear solution.
# Compounds 16 and 32: The administration dose was 2 mg/kg, and the administration volume was 10.0 mL/kg.
# Compound 38: The administration dose was 50 mg/kg, and the administration volume was 10.0 mL/kg.
# 0.2-mL blood samples were collected from the orbit before administration and 0.25, 0.5, 1.0, 2.0, 4.0, 6.0, 8.0, 11.0, and 24.0 h after administration, placed into EDTA-K2 anticoagulation test tubes, and centrifuged at 10,000 rpm for 1 min (4° C.), and the plasma was separated within 1 h and stored with dry ice before analysis. The procedures from the blood collection to the centrifugation were performed under ice-bath conditions. Access to food was given 2 h after administration.
# Compounds 16 and 32: Determination of the plasma concentrations of the test compounds in SD rats after the compounds were administered at different concentrations: A 25-μL sample of the SD rat plasma collected at each time point after administration was taken, and 200 μL of acetonitrile containing an internal standard (verapamil, 100 ng/mL) was added. The mixture was vortexed and centrifuged at 3700 rpm for 10 min. 0.1 μL of the supernatant was taken for LC/MS/MS analysis.
# Compound 38: Determination of the plasma concentration of the test compound in SD rats after the compound was administered at different concentrations: A 25-μL sample of the SD rat plasma collected at each time point after administration was taken, and 200 μL of acetonitrile containing an internal standard (dexamethasone, 100 ng/mL) was added. The mixture was vortexed and centrifuged at 4000 rpm for 15 min. 1 μL of the supernatant was taken for LC/MS/MS analysis.
# [2] = Effect on body weight in rat incision pain model; format: in vivo, SD rats; details: i.g./one dose
# Experimental: Nine SD rats, weighing 170-190 g, were selected for this study. The mechanical pain threshold was measured using an electronic aesthesiometer. Then an incision pain surgery was performed. During the surgery, after the rats were anesthetized with Zoletil (Zoletil-50, 250 mg, diluted with normal saline to 50 mL after being dissolved, injected at a dose of 2 mL per 200 g of body weight), a 1 cm long incision was made in the middle of the plantar surface of the left hind paw using a No. 10 scalpel blade, cutting through the skin and fascia, and the incision was closed using 3-0 sterile silk sutures. The injured area was disinfected with penicillin, and the animals were returned to their original place to recover overnight. After the overnight recovery, oral gavage administration was performed. Five hours after administration (about 24 h after surgery), the mechanical pain threshold was measured using an electronic aesthesiometer.
# The analgesic efficacy of the compound of Example 16 in the rat incision pain model is shown in FIG. 3 and Table 7, and its effect on body weight is shown in FIG. 4. The analgesic efficacy of the compound of Example 32 in the rat incision pain model is shown in FIG. 5 and Table 7, and its effect on body weight is shown in FIG. 6.
Compound,bioavailability [1] [%],AUC(0-t) [1] [ng·h/mL],CL/F [1] [mL/min/kg],half-life [1] [h],Cmax [1] [ng/mL],Effect on body weight of rats [2]
CO/N=C(\N)c1cc(NC(=O)[C@@H]2O[C@@](C)(C(F)(F)F)[C@@H](C)[C@H]2c2ccc(F)c(F)c2OC)ccn1 [Example 16],51.3,329,101,9.1,120,did not influence the body weight of rats
COc1c([C@H]2[C@H](C(=O)Nc3ccnc(/C(N)=N/O)c3)O[C@@](C)(C(F)(F)F)[C@H]2C)ccc(F)c1F [Example 32],24.7,321,96.9,2.6,85.7,did not influence the body weight of rats
